# From patent publication US20030022938A1, “N-fatty acid-amino acid conjugates and therapeutic uses” (priority 2001, published 2003)
# Entries after “also recorded” stand apart in the source; their conditions may differ.
# What was measured:
# [1] = system: human T-lymphocytes; assay: PHA stimulated T-cell proliferation (BrDU incorporation); assay type: cell-based; details: 0.1-10 mM, PHA 10 ng/ml, 72 hours
# Method: The cells were then stimulated with PHA (10 ng/ml) and incubated for 72 hours. A control set treated with NAGly/DMSO not stimulated with PHA was incubated in parallel. Cell numbers were determined by measuring BrDU incorporation for 24 hours. The values shown (see “PRO[…]” on the y-axis) are the ratios of the optical density readings from treated and control cells.
# Cell proliferation in vitro was measured by incorporation of 5-bromo-2′-deoxyuridine (BrDU) instead of thymidine into the DNA of proliferating cells. […] Cells (2×10^5 per well) were then cultured in 96 well, flat bottomed microtiter plates and stimulated with PHA (10 ng/ml) or not stimulated. Cultures were maintained for 72 hours in a standard cell incubator at 37° C. BrDU was then added to all wells and cells are then reincubated for 24 hours. The medium was removed and the cells were fixed and DNA was denatured. Anti-BrDU-peroxidase was added and the immune complex was detected by substrate (tetramethylbenzidine) reaction. The reaction was stopped with […] sulfuric acid (1N) and the product was quantified by measuring the absorbance at 492 nm with reference at 650 nm. Absorbance correlated directly to the amount of DNA synthesis, and, thereby, to the number of proliferating cells in each culture.
# [2] = system: IL-1β; details: concentrations of 1 μm and 10 μm; Burstein et al. 2000; cited from earlier work
# [3] = system: IL-1β; assay: IL-1β release from human peripheral blood monocytes (ELISA), LPS stimulated or not stimulated; assay type: cell-based; set-up: IL-lé release from PBM not stimulated with LPS (adherence only): dose or concentration left out as unconfirmed; details: for IL-lé secretion from LPS stimulated peripheral blood mononuclear cells: 60 min preincubation, LPS 10 ng/ml 18 hours; for IL-lé release from PBM not stimulated with LPS (adherence only): unstimulated cells, 18 hours
# Method: Cells (2×106) were incubated for 60 minutes with either agent at the indicated concentrations. Vehicle (0.5% DMSO) treated cells served as controls. Cells were then not stimulated (FIG. 3A) or stimulated (FIG. 3B) with LPS (10 ng/ml) for 18 hours, at which time supernatant IL-lé was measured by ELISA. Values shown are the means obtained from triplicate samples (Control A=826 pg/ml; Control B=8.68±0.5 ng/ml).
# [4] = system: human T lymphocytes; assay: Proliferation of anti CD3, CD4 treated human T lymphocytes; assay type: cell-based; details: 0.1 to 1.0 mM, vs vehicle (DMSO)
# [5] = system: arachidonic acid-induced paw edema; assay: Arachidonic acid-induced paw edema test; assay type: in vivo, mice
# Method: The conditions employed in the paw edema test have been previously described (Calhoun et al., Agents Actions, 21:306-309, 1987; Burstein et al., J. Pharmacology and Experimental Therapeutics, 251:531-535; Burstein et al., J. Med. Chem., 35:3135-41, 1992), with water being substituted for mercury as the displacement medium. Arachidonic acid (1.0 mg) in 25 μl of saline is injected subcutaneously into the plantar surface of the right hindpaw of ether-anesthetized CD-1 female mice (20-25 g) obtained from Charles River Laboratories. The volume of the right foot is then measured to the level of the lateral malleolus by water displacement before treatment and 30 minutes after arachidonic acid injection. An N-fatty acid-amino acid conjugate, in 50 μl of peanut oil, is given p.o. to the mice 30 min prior to the induction of edema by arachidonic acid. The change in paw volume is calculated for each mouse and the significance for each group can be determined by an ANOVA test.
# The conditions were previously described by Calhoun et al. (Agents Actions, 21:306-309, 1987), and by Burstein et al. (J. Pharmacology and Experimental Therapeutics, 251:531-535; J. Med. Chem., 35:3135-41, 1992), with water being substituted for mercury as the displacement medium. Arachidonic acid (1.0 mg in 25μl of saline) was injected subcutaneously into the plantar surface of the right hindpaw of ether-anesthetized CD-1 female mice (20-25 g) obtained from Charles River Laboratories. The volume of the right foot was measured to the level of the lateral malleous by water displacement before treatment and 30 minutes after arachidonic acid injection. […] The change in paw volume was calculated for each mouse and the significance for each group was determined by an ANOVA test.
# [6] = system: anandamide levels in RAW cells; assay: Anandamide levels in intact cultured RAW cells (HPLC-MS/MS); assay type: cell-based, murine; set-up: elevation of basal concentrations of anandamide: dose or concentration left out as unconfirmed
# Method: Cells were grown as described previously (Pestonjamasp and Burstein, Biochim Biophys Acta, 1394(2-3):249-60, 1998).
# [7] = system: RAW 264.7 murine monocyte cells; assay: RAW cell proliferation (MTT assay); assay type: cell-based; details: 24 hours treatment; 25, 50 and 100 mM
# Method: Cells were maintained in MEM containing 0.5% serum overnight. […] After a 24 hour incubation period, […] MTT (Sigma Co) solution (5 mg/ml in PBS) was added to each well and incubated for 2 hours at 37° C. Then, cells were triturated in 1.1 ml isopropanol MTT solubilization solution (Sigma Co). […] of this mixture was then transferred in duplicate to a 96 well plate and the optical density recorded using a ThermoMax® microplate reader at […] absorbance. Based on a standard curve with known numbers of cells, experimental readings were in the linear range for cell numbers.
# Values shown in FIG. 5 are optical density readings obtained using the MTT assay and are directly proportional to the numbers of cells. They are the means of four replicates ± SD. […] The values shown are the optical density readings obtained from the MTT assay where a value of 0.5 is approximately equivalent to 2×10^4 cells. Vehicle treated cells served as the control and gave a reading of 0.396±0.047 O.D. units. The data shown is representative of three independent experiments.
# [8] = system: arachidonic acid release in RAW cells; assay: Arachidonic acid release in RAW cells; assay type: cell-based, murine
# Method: Radiolabelled arachidonic acid was incorporated into the cellular lipid pools for 20 hours. […] Over the concentration range of 1.6-32 mM, a 300% increase in labeled, free arachidonic acid was found in the media when compared to vehicle treated control values. Media from cells in the control group contained 8,800±1600 dpm.
# The cells were grown in MEM with 1% penicillin-streptomycin and 10% fetal bovine serum at 37° C. under 95% […]:5% carbon dioxide to about 85% confluence. Cells were contained in 24-well plates and labeled with 100,000 dpm/ml/well of ^3H or ^14C arachidonic acid at 37° C. for 20 hours (Pestonjamasp and Burstein, Biochim Biophys Acta, 1394(2-3):249-60, 1998). The wells were washed 4 times with 0.5% BSA in MEM followed by incubation in 1 ml 0.1% BSA-MEM for 60 minutes. […] Control values were obtained with 10 μl of vehicle. Media were collected, centrifuged at 3000×g to remove cells, and 0.1 ml withdrawn and assayed for radioactivity by liquid scintillation counting.
# [9] = system: blood levels of anandamide; details: 10 mg/kg p.o., rats, 45 minutes post treatment, vs vehicle-treated
# Method: Anandamide and NAGly levels were measured in plasma extracts by HPLC-MS/MS with d8-anandamide added as an internal standard. Reverse phase HPLC was performed on a 100×1 mm i.d. column packed with ODS Hypersil® (3 μm, 120 A pore size, Keystone Scientific, Inc., Bellefonte, Pa.). A Rheos® 2000 micro HPLC pumping system was used to pump the mobile phase (90% methanol, 10% 0.05% pH 5.7 aqueous ammonium acetate buffer) at 50μl/minute. The outlet from the column was connected directly to the electrospray ion source of a Finnigan® LCQ quadrupole ion trap mass spectrometry system. Positive ion electrospray ionization was used with the source at 4500 V, the capillary at 200° and the nitrogen sheath gas at a relative setting of 60. NAGly eluted at 1.4 minutes and was detected by MS2 of its MH+ion (m/z 362.2) with an isolation window of 2.5 Th and relative collision energy (CID) of 29%. Full product ion spectra were collected from m/z 95-370 and peak areas from ion plots of m/z 287.2 were used for quantitation. Anandamide and d8-anandamide were similarly detected using their MH+ions (m/z 348.2 and 356.2) as precursors with isolation windows of 2.5 Th and CID at 30%. […] Concentrations of NAGly and anandamide were calculated from their peak area ratios to the internal standard with reference to an external calibration curve. […]
# [10] = system: NF-κB; assay: NFk-B inhibition studies in PBM (DNA binding, autoradiographic-PAGE); assay type: cell-based; details: 1 hour, then LPS 10 ng/ml 60 minutes; human PBM, two donors
# Method: PBM from two donors were prepared and treated separately. Cell extracts were then obtained and analyzed for DNA binding of NF-kB, as determined by autoradiographic-PAGE measurement, according to the following method. […] Media were then removed and the cells were transferred to 1.5 ml microcentrifuge tubes and washed 2 times with ice cold PBS. After centrifugation at 10,000 rpm, PBS was removed and 0.5 ml of cytoplasmic extraction buffer (buffer A) was added to the cell pellet. Tubes were vortexed and placed on ice for 10 minutes, then centrifuged at 12,000 rpm for 5 minutes. Cells were washed once with buffer A, which was then added to previous cytosol extract fraction. Cytoplasmic extracts were saved at −80° C. until use. 0.1 ml of cold nuclear extraction buffer (buffer B) was then added to precipitated nuclei and incubated for 60-120 minutes in ice. Nuclear extracts were obtained by centrifugation at 12,000 rpm for 10 minutes and saved at −80° C. until use. (Extraction buffer A is a hypotonic solution and contains HEPES, KCl, EDTA, EGTA, DTT, PMSF, leupeptin, antipain, aprotinin, and NP-40 detergent. Extraction buffer B is a high salt buffer and contains all of the above agents plus glycerol.) The protein concentrations of the nuclear extracts were determined by the Bradford protein assay (Coumassie blue staining). […] Gels were scanned and analysed utilizing the Adobe software for PC.
# [11] = system: formalin-induced pain behavior; assay: Formalin test for pain reduction; assay type: in vivo; details: rats
# Method: Rats received intraplantar injections of formalin in the hindpaw, and pain behavior consisting of lifting and licking of the injected paw was observed. Drug or co-vehicle was coinjected with the formalin solution (4.5% formalin in 10% DMSO, 100μl, s.c., ipl.).
# [12] = system: human T lymphocytes; details: Burstein et al. 2000; cited from earlier work
# [13] = 275 nmol coinjected with formalin
compound,measurement,setting,value
"CCCCC/C=C\C/C=C\C/C=C\C/C=C\CCCC(=O)NCCO [anandamide, reference compound]",proliferation of PHA stimulated T-cells (proliferation index),[1],little or no effect
same,proliferation of PHA stimulated T-cells (proliferation index),[1]; listed as Anandamide,no significant effects
same,IL-1β secretion from stimulated human PBMC,[2],modestly suppress
same,IL-lé secretion from LPS stimulated peripheral blood mononuclear cells,[3],smaller effect
same,IL-lé secretion from LPS stimulated peripheral blood mononuclear cells,[3]; listed as Anandamide,less effective than NAGly
same,IL-lé release from PBM not stimulated with LPS (adherence only),[3],less effective than NAGly
same,"proliferation of anti CD3, CD4 treated human T lymphocytes",[4],either no effect or a modest inhibition
same,"proliferation of anti CD3, CD4 treated human T lymphocytes",[4]; listed as Anandamide,only inhibition
"COc1ccc2c(c1)c(CC(=O)O)c(C)n2C(=O)c1ccc(Cl)cc1 [indomethacin, reference compound]",paw edema response of the reference NSAID,[5]; 0.2 mg/kg,equivalent response
N-arachidonyl glycine [NAGly],elevation of basal concentrations of anandamide,[6],50%
same,inhibition of RAW cell proliferation (MTT optical density),[7],dose-related inhibition; also recorded: Significant decreases in cell numbers; also recorded: significant inhibition of cell proliferation
same,"increase in labeled, free arachidonic acid in the media","[8]; 1.6-32 mM, 60 minutes, vs vehicle treated control",300%
same,stimulation of arachidonic acid release,[8]; range of 2-32 mM,three fold stimulation
same,IL-1β secretion from stimulated human PBMC,[2],modestly suppress
same,rise in blood levels of anandamide,[9],nearly ten-fold rise
same,IL-lé secretion from LPS stimulated peripheral blood mononuclear cells,[3],more effective inhibitor than anandamide; also recorded: suppresses; also recorded: inhibitory in a dose-related fashion
same,IL-lé release from PBM not stimulated with LPS (adherence only),[3],more effective inhibitor than anandamide; also recorded: striking reduction; also recorded: markedly reduces
same,binding of NF k-B to DNA / NFk-B activation,[10],effectively reduces; also recorded: strong inhibitory effect
same,second phase (tonic pain) of the formalin response,"[11]; 275 nmol coinjected with formalin, intraplantar",markedly suppressed
same,first phase (acute pain) of the formalin response,"[11]; coinjected with formalin, intraplantar",no effect
same,"proliferation of CD3-CD4 antibody-stimulated T-cells, prior observation",[12],biphasic effect
same,"proliferation of anti CD3, CD4 treated human T lymphocytes",[4],inverse dose-related increase; also recorded: stimulatory at low concentrations and somewhat inhibitory at higher concentrations
same,reduction of paw volumes,"[5]; 4 mg/kg orally, vs vehicle treated",reduced paw volumes by one half
same,paw edema response compared with indomethacin,[5]; NAGly 4 and 40 mg/kg vs 0.2 mg/kg indomethacin,equivalent response
same,reduction of paw edema,"[5]; doses of 4 and 40 mg/kg p.o., 30 min before arachidonic acid, vs untreated control mice that received only arachidonic acid",more than 50%
Deuterated N-arachidonylglycine [d8-NAGly],elevation of basal concentrations of anandamide,[6],50%
same,increase in anandamide (unlabelled),[6]; 10 mM deuterated NAGly,~3 ng/mL
same,increase in d8-anandamide,[6]; 10 mM deuterated NAGly,< 0.5 ng/mL
"CCCCC/C=C\C/C=C\C/C=C\C/C=C\CCCC(=O)O [arachidonic acid, reference compound]",pain suppression in the formalin test,[11]; [13],Neither glycine nor arachidonic acid (275 nmol) suppressed pain
"NCC(=O)O [glycine, reference compound]",pain suppression in the formalin test,[11]; [13],Neither glycine nor arachidonic acid (275 nmol) suppressed pain
